Experimental data as given in ChEMBL document CHEMBL1201862, “PubChem BioAssay data set” (2004).
Blank lines part the entries; values can stand above or below the molecule they belong to. The source made the active and inactive calls.

Experiments:
fMet-Leu-Phe receptor = target: T1, fMet-Leu-Phe receptor (Homo sapiens, UniProt P21462); assay: formyl peptide receptor binders – dose response (AID 519); type: functional
T1 sequence (P21462 whole entry): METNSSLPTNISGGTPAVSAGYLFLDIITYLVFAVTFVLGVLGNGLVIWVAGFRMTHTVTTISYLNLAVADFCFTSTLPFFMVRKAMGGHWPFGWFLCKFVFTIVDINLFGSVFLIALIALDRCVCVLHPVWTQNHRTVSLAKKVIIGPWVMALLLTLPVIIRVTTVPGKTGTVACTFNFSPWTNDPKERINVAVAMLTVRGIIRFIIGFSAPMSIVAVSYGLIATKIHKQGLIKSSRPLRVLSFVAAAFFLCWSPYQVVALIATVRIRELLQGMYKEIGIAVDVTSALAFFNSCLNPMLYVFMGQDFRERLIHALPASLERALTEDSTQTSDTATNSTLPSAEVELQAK

Cytochrome P450 1A2 = target: T2, Cytochrome P450 1A2 (Homo sapiens, UniProt P05177);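 also: PubChem cytochrome P450 panel assay, CYP1A2 panel member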
T2 sequence (P05177 whole entry): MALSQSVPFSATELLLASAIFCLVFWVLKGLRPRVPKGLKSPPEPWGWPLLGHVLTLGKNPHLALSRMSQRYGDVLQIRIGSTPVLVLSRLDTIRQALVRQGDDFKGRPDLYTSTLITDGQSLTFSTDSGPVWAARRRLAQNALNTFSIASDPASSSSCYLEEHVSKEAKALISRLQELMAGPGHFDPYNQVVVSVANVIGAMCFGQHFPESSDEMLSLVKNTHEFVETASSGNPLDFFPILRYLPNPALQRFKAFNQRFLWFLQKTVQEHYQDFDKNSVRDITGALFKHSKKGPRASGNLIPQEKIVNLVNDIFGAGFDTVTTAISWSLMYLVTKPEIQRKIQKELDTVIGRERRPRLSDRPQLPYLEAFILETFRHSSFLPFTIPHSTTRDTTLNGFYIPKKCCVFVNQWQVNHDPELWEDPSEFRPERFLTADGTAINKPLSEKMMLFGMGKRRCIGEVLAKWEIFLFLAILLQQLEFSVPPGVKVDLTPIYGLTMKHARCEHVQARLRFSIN

Protein skinhead-1 = target: T3, Protein skinhead-1 (Caenorhabditis elegans, UniProt P34707); type: functional
T3 sequence (P34707 whole entry): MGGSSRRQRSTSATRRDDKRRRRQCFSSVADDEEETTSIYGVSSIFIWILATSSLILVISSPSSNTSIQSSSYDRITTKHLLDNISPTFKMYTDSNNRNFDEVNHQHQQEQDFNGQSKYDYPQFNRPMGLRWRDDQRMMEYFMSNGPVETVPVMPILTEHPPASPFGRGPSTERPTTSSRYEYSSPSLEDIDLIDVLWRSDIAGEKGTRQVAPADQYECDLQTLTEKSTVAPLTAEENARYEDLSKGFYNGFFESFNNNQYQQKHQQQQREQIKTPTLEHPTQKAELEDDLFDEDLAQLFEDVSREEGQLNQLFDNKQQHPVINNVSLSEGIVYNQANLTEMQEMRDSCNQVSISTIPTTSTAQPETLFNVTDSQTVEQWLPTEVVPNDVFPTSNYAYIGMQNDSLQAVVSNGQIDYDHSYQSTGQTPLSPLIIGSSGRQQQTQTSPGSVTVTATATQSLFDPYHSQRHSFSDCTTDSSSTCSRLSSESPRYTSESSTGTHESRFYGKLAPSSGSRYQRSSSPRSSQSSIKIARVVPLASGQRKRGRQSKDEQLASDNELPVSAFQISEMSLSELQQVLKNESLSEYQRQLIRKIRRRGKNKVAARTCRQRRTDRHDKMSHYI

Beta-galactosidase = Beta-galactosidase (Escherichia coli, UniProt Q8VNN2); assay: Dose response counterscreen for EBI2 assay utilizing the enzyme, b-galactosidase.; type: functional
Sequence of Beta-galactosidase (Q8VNN2 whole entry, the tested form may be a part): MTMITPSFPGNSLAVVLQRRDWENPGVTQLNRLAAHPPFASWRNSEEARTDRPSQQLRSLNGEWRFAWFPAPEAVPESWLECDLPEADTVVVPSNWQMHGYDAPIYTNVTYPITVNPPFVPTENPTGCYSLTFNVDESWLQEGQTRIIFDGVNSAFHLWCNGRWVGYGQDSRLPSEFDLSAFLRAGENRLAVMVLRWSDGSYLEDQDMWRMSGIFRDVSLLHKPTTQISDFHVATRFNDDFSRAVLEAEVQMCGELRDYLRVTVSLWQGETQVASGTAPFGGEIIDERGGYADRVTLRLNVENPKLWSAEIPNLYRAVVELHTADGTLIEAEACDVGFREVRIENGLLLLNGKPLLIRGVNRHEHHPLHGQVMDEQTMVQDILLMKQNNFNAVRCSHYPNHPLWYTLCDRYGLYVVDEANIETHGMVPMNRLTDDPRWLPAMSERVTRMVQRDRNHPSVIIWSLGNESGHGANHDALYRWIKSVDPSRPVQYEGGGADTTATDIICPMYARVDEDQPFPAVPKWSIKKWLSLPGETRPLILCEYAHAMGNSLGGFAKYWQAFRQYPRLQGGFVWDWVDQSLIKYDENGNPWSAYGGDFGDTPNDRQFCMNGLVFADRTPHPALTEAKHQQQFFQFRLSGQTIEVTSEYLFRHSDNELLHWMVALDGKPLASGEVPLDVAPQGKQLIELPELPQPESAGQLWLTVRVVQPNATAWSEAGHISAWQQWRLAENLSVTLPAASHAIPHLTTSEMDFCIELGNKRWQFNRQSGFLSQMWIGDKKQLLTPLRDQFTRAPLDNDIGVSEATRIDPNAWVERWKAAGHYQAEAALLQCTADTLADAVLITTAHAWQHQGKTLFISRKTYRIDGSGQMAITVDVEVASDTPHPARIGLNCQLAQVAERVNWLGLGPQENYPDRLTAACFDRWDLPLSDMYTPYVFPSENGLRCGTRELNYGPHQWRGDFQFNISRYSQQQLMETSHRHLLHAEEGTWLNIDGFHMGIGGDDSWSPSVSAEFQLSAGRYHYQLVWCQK

[1] = blockers of HIV-1 envelope-mediated cell-cell fusion – cherry-pick, dose response (AID 652057); type: functional, cell-based
[2] = blockers of HIV-1 ZM109 envelope-driven cell-cell fusion – HeLa effector, CEM target cells, luciferase, cherry-pick, dose response (AID 652058); type: functional, cell-based;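 also: luciferase signal from HIV-1 Env mediated cell-cell fusion of effector and target cells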
[3] = off-target signal loss in HeLa-CEM21 co-culture – HeLa F-luc CTL cells, cherry-picked, counter-screen for HIV-1 Env fusion inhibitor project, dose response (AID 652040); type: functional, cell-based;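 also: potency for signal decrease marking cytotoxic or nonspecific inhibition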
[4] = HIV-1 AD8 envelope cell-cell fusion blockers – cherry-pick, dose response (AID 652062); type: functional, cell-based;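 also: luciferase signal from cell-cell fusion driven by HIV-1 clade B AD8 Env; potency is for inhibitors of fusion seen as a drop in luminescence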
[5] = Trypanosoma cruzi growth suppression in host cells – NIH3T3 host cells, beta-gal luminescence, confirmation (AID 2044); type: functional, cell-based;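 also: intracellular parasites grown in NIH/3T3 mouse fibroblasts as host cells; luminescent beta-galactosidase reporter signal from transgenic T. cruzi replicating inside host cells; inhibitors lower the luminescence signal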
[6] = NIH3T3 cell viability loss – ATP luminescence, mouse fibroblasts, counter-screen, dose response (AID 2010); type: functional, cell-based;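 also: cells exposed to compound for about 90 hours before reading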
cells = type: functional, cell-based
[7] = target: T4, Nuclear receptor subfamily 0 group B member 1 (Homo sapiens, UniProt P51843); type: functional, cell-based;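 also: HEK293T cells transfected with SF-1 and DAX-1 plus StAR promoter luciferase reporter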
T4 sequence (P51843 whole entry): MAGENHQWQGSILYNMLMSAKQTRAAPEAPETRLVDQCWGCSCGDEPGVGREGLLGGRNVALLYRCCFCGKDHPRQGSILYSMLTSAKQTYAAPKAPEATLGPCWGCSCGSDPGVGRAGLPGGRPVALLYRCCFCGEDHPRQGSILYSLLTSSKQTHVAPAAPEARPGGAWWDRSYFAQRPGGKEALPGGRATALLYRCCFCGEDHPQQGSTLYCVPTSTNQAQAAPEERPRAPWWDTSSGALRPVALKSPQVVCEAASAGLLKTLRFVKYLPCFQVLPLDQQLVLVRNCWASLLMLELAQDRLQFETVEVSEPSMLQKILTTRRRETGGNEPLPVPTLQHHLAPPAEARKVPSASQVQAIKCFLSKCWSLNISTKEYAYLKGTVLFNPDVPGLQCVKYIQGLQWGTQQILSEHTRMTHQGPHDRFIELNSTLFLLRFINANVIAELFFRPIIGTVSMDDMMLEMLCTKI

[8] = target: T5, DNA repair and recombination protein RAD54-like (Homo sapiens, UniProt Q92698); assay: RAD54 Holliday junction migration blockers – biochemical, fluorescence, cherry-picked samples, dose series, confirmation (AID 651657); type: functional
T5 sequence (Q92698 whole entry): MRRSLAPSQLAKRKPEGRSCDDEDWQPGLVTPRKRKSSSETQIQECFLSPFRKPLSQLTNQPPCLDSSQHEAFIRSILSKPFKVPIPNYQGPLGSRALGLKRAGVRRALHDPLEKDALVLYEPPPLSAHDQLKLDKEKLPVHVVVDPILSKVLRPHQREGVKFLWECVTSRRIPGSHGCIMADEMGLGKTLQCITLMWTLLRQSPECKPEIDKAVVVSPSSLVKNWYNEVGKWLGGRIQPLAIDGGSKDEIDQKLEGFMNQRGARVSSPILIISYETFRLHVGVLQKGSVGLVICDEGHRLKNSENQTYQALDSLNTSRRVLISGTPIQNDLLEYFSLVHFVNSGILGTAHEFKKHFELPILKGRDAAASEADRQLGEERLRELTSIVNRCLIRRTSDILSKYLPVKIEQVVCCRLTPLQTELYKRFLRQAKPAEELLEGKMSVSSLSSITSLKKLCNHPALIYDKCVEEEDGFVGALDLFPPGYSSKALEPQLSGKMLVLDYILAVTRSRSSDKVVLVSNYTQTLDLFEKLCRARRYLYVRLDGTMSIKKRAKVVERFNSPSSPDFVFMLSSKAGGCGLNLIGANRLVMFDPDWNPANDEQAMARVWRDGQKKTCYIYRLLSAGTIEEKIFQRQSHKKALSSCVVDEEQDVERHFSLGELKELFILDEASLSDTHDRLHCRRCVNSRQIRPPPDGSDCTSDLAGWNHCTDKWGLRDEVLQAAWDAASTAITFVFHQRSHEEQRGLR

[9] = target: T6, DNA repair protein RAD52 homolog (Homo sapiens, UniProt P43351); type: functional, biochemical
T6 sequence (P43351 whole entry): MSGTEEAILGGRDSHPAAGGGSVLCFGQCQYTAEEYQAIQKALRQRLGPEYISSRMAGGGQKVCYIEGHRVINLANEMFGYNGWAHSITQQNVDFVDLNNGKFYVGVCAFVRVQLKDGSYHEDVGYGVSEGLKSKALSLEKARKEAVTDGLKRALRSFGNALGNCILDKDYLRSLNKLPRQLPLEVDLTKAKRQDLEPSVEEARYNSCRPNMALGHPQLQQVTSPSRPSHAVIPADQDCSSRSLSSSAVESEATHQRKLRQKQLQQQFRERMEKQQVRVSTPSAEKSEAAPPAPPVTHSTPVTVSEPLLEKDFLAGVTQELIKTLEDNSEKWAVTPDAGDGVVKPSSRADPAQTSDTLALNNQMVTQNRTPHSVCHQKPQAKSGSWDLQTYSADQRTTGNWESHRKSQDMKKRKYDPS

[10] = viability loss in CEM21 cells – cell-based, CellTiter-Glo luminescence, cherry-picked, cytotoxicity control for viral fusion inhibitor project, dose response (AID 652042); type: functional;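 also: potency for signal decrease meaning cytotoxicity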
HEK293 [11] = assay: cells; settings: Homo sapiens
HEK293 [12] = assay: cells; settings: Homo sapiens; remark: listed apart in the source
[13] = target: Luciferin 4-monooxygenase (Photinus pyralis, UniProt P08659); assay: inhibition of purified Photinus pyralis luciferase – biochemical, luminescence, dose response (AID 1891)
Sequence of Luciferin 4-monooxygenase (P08659 whole entry): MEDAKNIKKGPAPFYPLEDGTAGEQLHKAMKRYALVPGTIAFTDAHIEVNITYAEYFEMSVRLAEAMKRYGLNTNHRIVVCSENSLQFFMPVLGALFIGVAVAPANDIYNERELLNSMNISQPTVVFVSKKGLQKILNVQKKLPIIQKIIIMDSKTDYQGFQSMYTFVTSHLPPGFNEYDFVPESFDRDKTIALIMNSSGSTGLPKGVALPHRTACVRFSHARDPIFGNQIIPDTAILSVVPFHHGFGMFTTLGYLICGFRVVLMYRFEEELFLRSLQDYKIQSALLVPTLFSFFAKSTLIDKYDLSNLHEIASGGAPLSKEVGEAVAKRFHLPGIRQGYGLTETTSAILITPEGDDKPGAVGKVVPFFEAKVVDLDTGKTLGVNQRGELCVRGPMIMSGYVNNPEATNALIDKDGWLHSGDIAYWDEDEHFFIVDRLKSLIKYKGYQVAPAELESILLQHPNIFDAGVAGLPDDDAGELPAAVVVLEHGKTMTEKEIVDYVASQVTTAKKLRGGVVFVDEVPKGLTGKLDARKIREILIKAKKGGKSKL

[14] = Luminescence Cell-Based Dose Confirmation HTS to Identify Inhibitors of Platelet Dense Granule Release. [Related pubchem assays: 1663 (Primary HTS), 1678 (Summary of Project)]; type: functional
HEK293 [15] = assay: EBV LMP1 TES2 canonical NF-kB signalling blockers – cell-based, HEK293, luciferase, cherry-pick, dose response (AID 588343); type: functional; settings: Homo sapiens
[16] = reduction of Shn3 3'UTR-driven luciferase in osteoblasts – cell-based, Clone20 osteoblasts, firefly luciferase, cherry-picked, dose response (AID 624132); type: functional;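 also: firefly luciferase luminescence from reporter carrying the Shn3 3'UTR in osteoblasts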
[17] = non-specific 3'UTR reporter inhibition in Clone20-Shn3RL – cell-based, Renilla luciferase, cherry-picked, counter-screen for Shn3 inhibitor project, dose response (AID 624133); type: functional
Paired box protein Pax-8 = Paired box protein Pax-8 (Homo sapiens, UniProt Q06710); assay: PAX8 transcriptional activity inhibition in RMG-I – RMG-I cells, luciferase, cherry-pick, dose response (AID 687027); type: functional, cell-based;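 also: luciferase reporter driven by Pax8 target thyroperoxidase promoter measured by SteadyGlo luminescence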
Sequence of Paired box protein Pax-8 (Q06710 whole entry): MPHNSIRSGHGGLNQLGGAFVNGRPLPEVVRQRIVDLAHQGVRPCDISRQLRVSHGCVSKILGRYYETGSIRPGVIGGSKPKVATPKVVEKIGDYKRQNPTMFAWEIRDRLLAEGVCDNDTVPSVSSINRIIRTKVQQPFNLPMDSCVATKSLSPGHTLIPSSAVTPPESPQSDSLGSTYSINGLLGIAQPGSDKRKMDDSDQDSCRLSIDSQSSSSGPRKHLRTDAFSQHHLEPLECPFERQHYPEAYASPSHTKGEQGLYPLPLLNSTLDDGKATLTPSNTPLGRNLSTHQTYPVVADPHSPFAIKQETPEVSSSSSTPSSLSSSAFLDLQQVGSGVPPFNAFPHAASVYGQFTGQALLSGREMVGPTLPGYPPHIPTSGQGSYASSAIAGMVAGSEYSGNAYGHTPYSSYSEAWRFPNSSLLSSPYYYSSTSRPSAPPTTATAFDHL

[18] = NIH-3T3 fibroblast cytotoxicity, dose response, cytotoxicity control, cell-based, fluorescence, Alamar Blue, secondary assay (AID 2327); type: functional;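 also: NIH-3T3 mouse fibroblasts cultured with fluconazole at 8 µg/mL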
[19] = fluconazole-exposed Candida albicans growth modulators – fluorescence, retest, confirmation (AID 2467); type: functional, cell-based
[20] = target: Dual specificity tyrosine-phosphorylation-regulated kinase 1A (Rattus norvegicus, UniProt Q63470); type: biochemical, Homo sapiens

SMILES: COc1ccc(S(=O)(=O)N2CCCCC2)cc1NC(=O)Cc1sc(C)nc1-c1ccc(F)cc1
- AC50 [1]: 0.863 µM (active)
- AC50 [2]: 2.59 µM (active)
- AC50 [3]: 2.18 µM (active)
- AC50 [4]: 6.25 µM (active)

SMILES: O=C(CCS(=O)(=O)c1ccccc1)N(CCCN1CCOCC1)c1nc2ccc(F)cc2s1
- EC50 [5]: 2.06 µM (active)
- EC50 [6]: 6.18 µM (active)
- IC50 (cells): > 67.5 µM (inactive)
- IC50 [7]: > 67.5 µM (inactive)

SMILES: COc1cccc(Nc2nc(C(N)CCc3ccccc3)cs2)n1 (stereo not drawn)
- AC50 [1]: 1.96 µM (active)
- AC50 [10]: 17.1 µM (active)
- AC50 [2]: 3.98 µM (active)
- AC50 [3]: 3.37 µM (active)
- AC50 [4]: 3.36 µM (active)
- EC50 (HEK293 [11]): > 59.6 µM (inactive)
- EC50 (HEK293 [12]): > 59.6 µM (inactive)

SMILES: O=C(c1ccc(-n2cnnn2)cc1)N1CCN(C(c2ccccc2)c2ccccc2)CC1
- IC50 (Beta-galactosidase): > 80 µM (inactive)

SMILES: Cc1ccc(/C=C/c2ccc3cccc(O)c3n2)s1
- IC50 (Protein skinhead-1): > 100 µM (inactive)

SMILES: O=C(COc1ccc(Br)cc1)N1CCN(C2CCCC2)CC1
- IC50 (Beta-galactosidase): > 80 µM (inactive)

SMILES: O=C(/C=C\Nc1ccc2c(c1)OCO2)c1cccs1
- EC50 [13]: 0.912 µM (active)
- EC50 [14]: 6.14 µM (active)
- IC50 (cells): > 67.5 µM (inactive)
- IC50 [7]: > 67.5 µM (inactive)

SMILES: COc1ccccc1-n1cc([C@@H]2C[C@H]3CN(c4ccccc4)C(=O)[C@]34CCCN24)cn1
- AC50 (HEK293 [15]): 19 µM (active)
- AC50 [16]: 1.46 µM (active)
- AC50 [17]: 1.8 µM (active)
- IC50 (Protein skinhead-1): > 100 µM (inactive)
- AC50 (Paired box protein Pax-8): 5.21 µM (active)

SMILES: CCN(CC(O)c1cccc(O)c1)C(=O)C12CC3CC(CC(C3)C1)C2 (stereo not drawn)
- AC50 [1]: 0.33 µM (active)
- AC50 [10]: 46.4 µM (active)
- AC50 [2]: 0.415 µM (active)
- AC50 [3]: 0.619 µM (active)
- AC50 [4]: 3 µM (active)

SMILES: c1ccc2sc(NN=C3CCCCCC3)nc2c1
- EC50 [18]: > 150 µM (inactive)
- EC50 [19]: > 38 µM (not active)
- AC50 [20]: 3.89 µM (active)
- IC50 (cells): > 67.5 µM (inactive)
- IC50 [7]: > 0.278 µM (active)

More lines, now with the values ahead:

- Ki (fMet-Leu-Phe receptor): > 66.7 µM (inactive)
- AC50 (Cytochrome P450 1A2): 12.6 µM (inconclusive)
SMILES: COc1cccc(OC)c1/C(O)=C(\C#N)c1nc2ccccc2[nH]1

- IC50 (Protein skinhead-1): 4.45 µM (active)
SMILES: Clc1ccc(-c2csc(-c3ccncc3)n2)cc1

- IC50 (Beta-galactosidase): > 80 µM (inactive)
SMILES: CC(C)(C)c1nnc(N/N=C/c2ccc(Br)cc2)n(N)c1=O

- AC50 [8]: 91.2 µM (active)
- AC50 [9]: 4.49 µM (active)
SMILES: CCN1CCN(C(S)=Nc2ccc3nc(N4CCN(C)CC4)cc(C)c3c2)CC1

- IC50 (Protein skinhead-1): > 100 µM (inactive)
SMILES: NC(=O)C1CCCN(C(=O)NC2CCCCC2)C1 (stereo not drawn)

- Ki (fMet-Leu-Phe receptor): > 66.7 µM (inactive)
SMILES: N[C@@H](Cc1ccc(O)c(I)c1)C(=O)O [IOTYROSINE]

- Ki (fMet-Leu-Phe receptor): > 66.7 µM (inactive)
SMILES: COCCN1C(=O)C(O)=C(C(=O)c2cccs2)C1c1ccccc1 (stereo not drawn)

- AC50 [8]: 12.1 µM (active)
- AC50 [9]: 5.64 µM (active)
SMILES: O=C(CN1CCCCC1)n1c2ccccc2c2ccccc21
